# Measurements taken from patent US4206225A, “2,10-Disubstituted dibenzo[b,d]pyrans and benzo[c]quinolines” (priority 1978, dated 1980).
# Like-named read-outs stand apart in the source and are kept apart here.
# Assays:
# [1] = tested on: phenylbenzoquinone irritant-induced writhing in mice; experiment: Suppression of phenylbenzoquinone (PBQ) irritant-induced writhing; assay type: in vivo, mice (Carworth Farms CF-1); conditions: Mus musculus, read-out: ED50 in PBQ Writhing Test
# Method: The analgesic properties of the compounds of this invention are determined by tests using thermal nociceptive stimuli, such as the mouse tail flick procedure, or chemical nociceptive stimuli, such as measuring the ability of a compound to suppress phenylbenzoquinone irritant-induced writhing in mice. These tests and others are described below.
# Suppression of Phenylbenzoquinone Irritant-Induced Writhing
# Groups of 5 Carworth Farms CF-1 mice are pretreated subcutaneously or orally with saline, morphine, codine or the test compound. Twenty minutes (if treated subcutaneously) or fifty minutes (if treated orally) later, each group is treated with intraperitoneal injection of phenylbenzoquinone, an irritant known to produce abdominal contractions. The mice are observed for 5 minutes for the presence or absence of writhing starting 5 minutes after the injection of the irritant. MPE50 's of the drug pretreatments in blocking writhing are ascertained.
# (§1) Results of the above tests are recorded as percent maximum possible effect (% MPE). The % MPE of each group is statistically compared to the % MPE of the standard and the predrug control values. The % MPE is calculated as follows: [formula]
# (§2) The analgesic activity is reported in terms of MPE50, the dose at which half of the maximal possible analgesic effect is observed in a given test.
# The analgesic activity of several compounds of the invention in the above described test for suppresion of phenylbenzoquinone (PBQ) irritant-inducedwrithing are set forth below in Table I.
# [2] = tested on: rabbits; conditions: 20 mg./kg.; cited from earlier work
# [3] = tested on: animal pharmacology; conditions: in vivo; cited from earlier work
# [4] = tested on: thermal nociceptive stimulus (hot plate, 57° C.) in mice; experiment: Mouse hot plate analgesic testing; assay type: in vivo; conditions: s.c.
# Method: (a) Mouse Hot Plate Analgesic Testing
# The method used is modified after Woolfe and MacDonald, J. Pharmacol. Exp. Ther., 80, 300-307 (1944). A controlled heat stimulus is applied to the feet of mice on a 1/8" think aluminum plate. A 250 watt reflector infrared heat lamp is place under the bottom of the aluminum plate. A thermal regulator, connected to thermistors on the plate surface, programs the heat lamp to maintain a constant temperature of 57° C. Each mouse dropped into a glass cylinder (61/2" diameter) resting on the hot plate, and timing is begun when the animal's feet touch the plate. At 0.5 and 2 hours after treatment with the test compound the mouse is observed for the first "flicking" movements of one or both hind feet or until 10 seconds elapse without such movements. Morphine has an MPE50 =4-5.6 mg./kg. (s.c.).
# as §1, §2
# [5] = tested on: thermal nociceptive stimulus (heat applied to the tail) in mice; experiment: Mouse tail flick analgesic testing; assay type: in vivo; conditions: s.c.
# From the text: (b) Mouse Tail Flick Analgesic Testing
# Tail flick testing in mice is modified after D'Amour and Smith, J. Pharmacol. Exp. Ther., 72, 74-79 (1941), using controlled high intensity heat applied to the tail. Each mouse is placed in a snug-fitting metal cylinder, with the tail protruding through one end. This cylinder is arranged so that the tail lies flat over a concealed heat lamp. At the onset of testing, an aluminum flag over the lamp is drawn back, allowing the light beam to pass through the slit and focus onto the end of the tail. A timer is simultaneously activated. The latency of a sudden flick of the tail is ascertained. Untreated mice usually react within 3-4 seconds after exposure to the lamp. The end point for protection is 10 seconds. Each mouse is tested at 0.5 and 2 hours after treatment with morphine and the test compound. Morphine has an MPE5 50 of 3.2-5.6 mg./kg. (s.c.).
# as §1, §2
# [6] = sc, subcutaneous, twenty minutes pretreatment
# [7] = oral, fifty minutes pretreatment
smiles,measurement,setting,value
"CC(CCCc1ccccc1)c1cc2c(cc1O)C1C(O)CCCC1C(C)(C)O2 (mixture of isomers) [Example 11, dl-cis-6a,7,8,9,10a-Hexahydro-2,10-dihydroxy-6,6-dimethyl-3-(1-methyl-4-phenylbutyl)-6H-dibenzo[b,d]pyran]",ED50,[1]; [6],27 mg/kg
"CC(CCCc1ccccc1)c1cc2c(cc1O)C1=C(CCCC1)C(C)(C)O2 (racemic) [Example 16, dl-7,8,9,10-Tetrahydro-2-hydroxy-6,6-dimethyl-3-(1-methyl-4-phenylbutyl)-6H-dibenzo[b,d]pyran]",ED50,[1]; [7],10 mg/kg
"CC(CCCc1ccccc1)c1cc2c(cc1O)C1=C(CCCC1O)C(C)(C)O2 (racemic) [Example 21, dl-7,8,9,10-Tetrahydro-2,10α-dihydroxy-6,6-dimethyl-3-(1-methyl-4-phenylbutyl)-6H-dibenzo[b,d]pyran]",ED50,[1]; [7],10 mg/kg
"CC(CCCc1ccccc1)c1cc2c(cc1O)[C@@H]1C(=O)CCC[C@@H]1C(C)(C)O2 (relative stereo) [Example 9A, dl-cis-6a,7,8,9,10,10a-Hexahydro-2-hydroxy-6,6-dimethyl-3-(1-methyl-4-phenylbutyl)-10-oxo-6H-dibenzo[b,d]pyran]",ED50,[1]; [6],10 to 32 mg/kg
"CCCCCc1cc2c(cc1O)C1=C(CCC(C)C1)C(C)(C)O2 (centres unmarked) [6,7,8,9-tetrahydro-2-hydroxy-3-n-amyl-6,6,9-trimethyldibenzo[b,d]pyran]",activity in rabbits,[2],inactive
"CCCCCc1cc(O)c2c(c1)N(C)C(C)(C)C1=C2CC(C)CC1 (centres unmarked) [7,8,9,10-tetrahydro-1-hydroxy-5,6,6,9-tetramethyl-3-n-pentylphenanthridine]",activity in animal pharmacology,[3],completely inert
CN1CC[C@]23c4c5ccc(O)c4O[C@H]2[C@@H](O)C=C[C@H]3[C@H]1C5 [Morphine],MPE50,[4],4 to 5.6 mg/kg
same,MPE50 (printed MPE5 50),[5],3.2 to 5.6 mg/kg
